Broadly, the IC50 is the concentration at which inhibition is half-maximal.

The source of these data is US8697739B2, “Bicyclic acetyl-CoA carboxylase inhibitors and uses thereof” (Novartis AG, priority 2010, dated 2014).

T1 sequence (O00763 144-2458): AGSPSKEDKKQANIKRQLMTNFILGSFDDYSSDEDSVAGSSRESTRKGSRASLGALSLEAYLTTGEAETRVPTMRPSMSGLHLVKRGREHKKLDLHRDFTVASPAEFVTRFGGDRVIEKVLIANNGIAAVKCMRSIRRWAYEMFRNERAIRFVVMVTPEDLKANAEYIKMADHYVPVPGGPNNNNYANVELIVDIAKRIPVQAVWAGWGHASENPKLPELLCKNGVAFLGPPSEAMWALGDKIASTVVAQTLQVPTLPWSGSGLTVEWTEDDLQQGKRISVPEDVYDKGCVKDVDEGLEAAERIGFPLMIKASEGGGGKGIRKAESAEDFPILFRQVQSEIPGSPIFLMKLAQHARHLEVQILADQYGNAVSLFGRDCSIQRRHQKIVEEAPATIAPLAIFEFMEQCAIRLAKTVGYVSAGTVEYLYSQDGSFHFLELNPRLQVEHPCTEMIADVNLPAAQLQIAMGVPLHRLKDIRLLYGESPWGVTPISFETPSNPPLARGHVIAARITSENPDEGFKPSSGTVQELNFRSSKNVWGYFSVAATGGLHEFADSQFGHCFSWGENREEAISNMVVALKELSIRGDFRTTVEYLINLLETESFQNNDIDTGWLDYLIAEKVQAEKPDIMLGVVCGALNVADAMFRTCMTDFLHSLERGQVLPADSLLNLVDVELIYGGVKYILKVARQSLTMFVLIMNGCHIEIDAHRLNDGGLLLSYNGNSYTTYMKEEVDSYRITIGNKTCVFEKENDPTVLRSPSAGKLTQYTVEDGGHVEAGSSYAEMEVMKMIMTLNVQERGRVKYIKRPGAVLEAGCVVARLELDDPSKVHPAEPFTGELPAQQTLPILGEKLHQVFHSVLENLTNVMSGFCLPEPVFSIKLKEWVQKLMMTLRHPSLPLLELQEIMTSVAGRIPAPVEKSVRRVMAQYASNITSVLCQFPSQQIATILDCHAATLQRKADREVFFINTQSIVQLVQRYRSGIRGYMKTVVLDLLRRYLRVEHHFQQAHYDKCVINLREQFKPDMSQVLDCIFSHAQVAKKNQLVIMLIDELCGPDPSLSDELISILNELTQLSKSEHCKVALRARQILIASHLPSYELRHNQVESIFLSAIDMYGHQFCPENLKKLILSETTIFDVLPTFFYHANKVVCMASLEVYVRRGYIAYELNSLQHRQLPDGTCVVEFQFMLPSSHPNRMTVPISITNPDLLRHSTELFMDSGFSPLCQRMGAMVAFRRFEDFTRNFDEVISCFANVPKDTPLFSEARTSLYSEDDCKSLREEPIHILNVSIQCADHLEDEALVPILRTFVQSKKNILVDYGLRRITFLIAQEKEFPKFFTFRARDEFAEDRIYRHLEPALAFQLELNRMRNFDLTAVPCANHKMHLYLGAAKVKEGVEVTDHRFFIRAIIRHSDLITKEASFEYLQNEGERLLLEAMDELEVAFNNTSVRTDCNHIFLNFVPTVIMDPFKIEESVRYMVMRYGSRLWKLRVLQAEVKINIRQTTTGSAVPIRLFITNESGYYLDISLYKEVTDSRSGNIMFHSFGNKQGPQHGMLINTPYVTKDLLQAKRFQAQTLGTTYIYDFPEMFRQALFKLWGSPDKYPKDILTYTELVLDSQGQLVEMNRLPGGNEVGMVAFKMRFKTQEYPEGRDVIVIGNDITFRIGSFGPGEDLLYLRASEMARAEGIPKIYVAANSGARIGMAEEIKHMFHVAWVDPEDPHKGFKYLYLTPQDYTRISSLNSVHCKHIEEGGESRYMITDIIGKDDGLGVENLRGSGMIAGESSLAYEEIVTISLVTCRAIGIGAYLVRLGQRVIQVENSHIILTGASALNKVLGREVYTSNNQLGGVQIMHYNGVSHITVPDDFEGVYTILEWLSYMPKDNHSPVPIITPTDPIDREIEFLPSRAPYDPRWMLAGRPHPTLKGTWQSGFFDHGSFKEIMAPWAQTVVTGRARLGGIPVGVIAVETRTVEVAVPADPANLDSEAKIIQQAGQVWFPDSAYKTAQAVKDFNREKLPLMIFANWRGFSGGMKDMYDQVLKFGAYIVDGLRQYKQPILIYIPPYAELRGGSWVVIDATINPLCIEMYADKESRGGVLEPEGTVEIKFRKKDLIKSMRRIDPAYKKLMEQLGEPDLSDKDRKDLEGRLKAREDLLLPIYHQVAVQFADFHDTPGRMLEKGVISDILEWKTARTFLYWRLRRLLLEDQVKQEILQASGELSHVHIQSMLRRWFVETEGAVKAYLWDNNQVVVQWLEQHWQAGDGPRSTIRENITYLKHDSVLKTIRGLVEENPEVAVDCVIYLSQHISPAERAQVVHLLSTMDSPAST

The assay has as its target T1, human acetyl-CoA carboxylase 2 (ACC2) (Homo sapiens, UniProt O00763).
T1 construct: The cDNA encoding amino acids 144 to 2458 of human acetyl-CoA carboxylase 2; made in house; host or cells: Sf9 insect cells (baculovirus, pFastBac1)
In words: Acetyl-CoA carboxylase enzyme assay (malonyl-CoA formation by LC/MS/MS). In kind it is biochemical. The note with it: recombinant human ACC2 (aa 144-2458); read-out: IC50 ACC2. Put shortly: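 Malonyl-CoA formation was read by LC/MS/MS MRM against a [13C3]-malonyl-CoA internal standard, after acetic acid quench. The enzyme was baculovirus/Sf9-expressed human ACC2 residues 144–2458, given 15 minutes room-temperature compound preincubation in HEPES pH 7.5 buffer with MgCl2, citrate and DTT. Substrate solution held 50 μM acetyl-CoA, 120 μM ATP and 2 mM KHCO3.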
Regarding `C[C@@H](NC(=O)[C@H]1CC[C@H](NS(=O)(=O)c2ccc3[nH]c(Nc4ccc(N5CCOCC5)cc4)nc3c2)CC1)c1ccccc1` [Example 574, (1r,4R)-4-(2-(4-morpholinophenylamino)-1H-benzo[d]imidazole-5-sulfonamido)-N-((R)-1-phenylethyl)cyclohexanecarboxamide], the half-maximal inhibitory concentration (IC50) was under 10 nM. The value for `CC(C)OC(=O)c1ccc(NS(=O)(=O)c2ccc3nc(-c4ccc(C(=O)O)cc4)[nH]c3c2)cc1` [Example 509, 4-(6-(N-(4-(isopropoxycarbonyl)phenyl)sulfamoyl)-1H-benzo[d]imidazol-2-yl)benzoic acid] was 678 nM; that for `Cn1c(-c2ccc(CO)cc2)cc2ccc(S(=O)(=O)N[C@H]3CC[C@H](C(=O)N4CCNC(=O)C4)CC3)cc21` [Example 347, 2-(4-(hydroxymethyl)phenyl)-1-methyl-N-((1r,4r)-4-(3-oxopiperazine-1-carbonyl)cyclohexyl)-1H-indole-6-sulfonamide] was 120 nM; that for `COC(=O)[C@@H](NC(=O)[C@H]1CC[C@H](NS(=O)(=O)c2ccc3cc(-c4ccccc4)n(C)c3c2)CC1)c1ccccc1` [Example 351, (S)-methyl 2-((1r,4S)-4-(1-methyl-2-phenyl-1H-indole-6-sulfonamido)cyclohexanecarboxamido)-2-phenylacetate] was 95 nM.

`Cc1ccccc1-c1cc2ccc(S(=O)(=O)N[C@H]3CC[C@H](C(=O)N4CCN[C@@H](C(F)(F)F)C4)CC3)cc2[nH]1` [Example 343, 2-o-tolyl-N-((1R,4r)-4-((R)-3-(trifluoromethyl)piperazine-1-carbonyl)cyclohexyl)-1H-indole-6-sulfonamide]: the concentration for half-maximal inhibition (IC50) came out at 170 nM. With `COc1ccccc1-c1cc2ccc(S(=O)(=O)N[C@H]3CC[C@H](C(=O)N[C@H](C)c4ccc(F)cc4)CC3)cc2[nH]1` [Example 293], the IC50 stood at 38 nM.

On to `CC(C)(CO)[C@@H](NC(=O)[C@H]1CC[C@H](NS(=O)(=O)c2ccc3c(Cl)c(-c4ccccc4)[nH]c3c2)CC1)c1ccccc1` [Example 478, (1r,4S)-4-(3-chloro-2-phenyl-1H-indole-6-sulfonamido)-N-((S)-3-hydroxy-2,2-dimethyl-1-phenylpropyl)cyclohexanecarboxamide], for which the half-maximal inhibitory concentration (IC50) is under 10 nM. Turning to `CCN(C)C(=O)[C@H]1CC[C@H](NS(=O)(=O)c2ccc3cc(-c4ccc(CCC(=O)OC)cc4)n(C)c3c2)CC1` [Example 364, methyl 3-(4-(6-(N-((1r,4r)-4-(ethyl(methyl)carbamoyl)cyclohexyl)sulfamoyl)-1-methyl-1H-indol-2-yl)phenyl)propanoate], the IC50 stood at 140 nM. For the molecule `Cc1cc(CO)ccc1-c1cc2ccc(S(=O)(=O)N[C@H]3CC[C@H](C(=O)N4CCOCC4c4ccccc4)CC3)cc2[nH]1` (some centres unmarked) [Example 311, 2-(4-(hydroxymethyl)-2-methylphenyl)-N-((1r,4r)-4-(3-phenylmorpholine-4-carbonyl)cyclohexyl)-1H-indole-6-sulfonamide], the 50% inhibitory concentration (IC50) is under 10 nM.

With `CC(C)(C)OC(=O)N1CCN(C(=O)[C@H]2CC[C@H](NS(=O)(=O)c3ccc4c(c3)Cc3ccccc3-4)CC2)[C@@H](c2ccccc2)C1` [Example 240, (S)-tert-butyl 4-((1r,4S)-4-(9H-fluorene-2-sulfonamido)cyclohexanecarbonyl)-3-phenylpiperazine-1-carboxylate], the half-inhibitory concentration (IC50) is under 10 nM.

`COCCn1c(-c2ccccc2)nc2cc(S(=O)(=O)N[C@H]3CC[C@H](C(=O)N[C@H](C)c4ccc(F)cc4)CC3)ccc21` [Example 126, (1r,4R)-N-((R)-1-(4-fluorophenyl)ethyl)-4-(1-(2-methoxyethyl)-2-phenyl-1H-benzo[d]imidazole-5-sulfonamido)cyclohexanecarboxamide]: the IC50 was 71 nM. Regarding `COC(=O)c1ccc(-c2nc3cc(S(=O)(=O)N[C@H]4CC[C@H](C(=O)N[C@H](C)c5ccccc5)CC4)ccc3[nH]2)cc1` [Example 275, methyl 4-(5-(N-((1R,4r)-4-((R)-1-phenylethylcarbamoyl)cyclohexyl)sulfamoyl)-1H-benzo[d]imidazol-2-yl)benzoate], the IC50 was found to be 18 nM. The value for `C[C@@H](NC(=O)[C@H]1CC[C@H](NS(=O)(=O)c2ccc3[nH]c(-c4ccc(C(=O)O)cc4)nc3c2)CC1)c1ccccc1` [Example 278, 4-(5-(N-((1R,4r)-4-((R)-1-phenylethylcarbamoyl)cyclohexyl)sulfamoyl)-1H-benzo[d]imidazol-2-yl)benzoic acid] was 66 nM; that for `Cc1cc(CO)ccc1-c1cc2ccc(S(=O)(=O)N[C@H]3CC[C@H](C(=O)N4CCNC[C@@H]4c4ccccc4)CC3)cc2[nH]1` [Example 313, 2-(4-(hydroxymethyl)-2-methylphenyl)-N-((1S,4r)-4-((S)-2-phenylpiperazine-1-carbonyl)cyclohexyl)-1H-indole-6-sulfonamide] was under 10 nM. As to `CC(C)OC(=O)c1ccc(NS(=O)(=O)c2ccc3nc(-c4ccc(F)cc4)[nH]c3c2)cc1` [Example 499, isopropyl 4-(2-(4-fluorophenyl)-1H-benzo[d]imidazole-6-sulfonamido)benzoate], the IC50 is 2110 nM. With `COc1ccc(Nc2nc3cc(S(=O)(=O)Nc4ccc(-c5nnc(C(C)(C)C)o5)cc4)ccc3[nH]2)cc1` [Example 604, N-(4-(5-tert-butyl-1,3,4-oxadiazol-2-yl)phenyl)-2-(4-methoxyphenylamino)-1H-benzo[d]imidazole-5-sulfonamide], the half-inhibitory concentration (IC50) amounted to 676 nM. The value for `Cn1ccc2cc(S(=O)(=O)N[C@H]3CC[C@H](C(=O)N[C@H](CCO)c4ccccc4)CC3)ccc21` [Example 673, (1r,4R)-N-((R)-3-hydroxy-1-phenylpropyl)-4-(1-methyl-1H-indole-5-sulfonamido)cyclohexanecarboxamide] was 138 nM; that for `Cn1c(-c2ccccc2)cc2cc(S(=O)(=O)N[C@H]3CC[C@H](C(=O)N4CCN[C@@H](C(F)(F)F)C4)CC3)ccc21` [Example 87, 1-methyl-2-phenyl-N-((1R,4r)-4-((R)-3-(trifluoromethyl)piperazine-1-carbonyl)cyclohexyl)-1H-indole-5-sulfonamide] was 100 nM. The value for `CC(C)N(C)C(=O)[C@H]1CC[C@H](NS(=O)(=O)c2ccc3[nH]c(Nc4ccccc4)nc3c2)CC1` [Example 7, (1r,4r)-N-isopropyl-N-methyl-4-(2-(phenylamino)-1H-benzo[d]imidazole-5-sulfonamido)cyclohexanecarboxamide] was 71 nM. Regarding `CC[C@@H]1CCc2cc(S(=O)(=O)N[C@H]3CC[C@H](C(=O)N[C@H](C)c4ccc(F)cc4)CC3)ccc2N1` [Example 171, (1r,4R)-4-((R)-2-ethyl-1,2,3,4-tetrahydroquinoline-6-sulfonamido)-N-((R)-1-(4-fluorophenyl)ethyl)cyclohexanecarboxamide], the IC50 amounted to 289 nM.

Turning to `C[C@@H](NC(=O)[C@H]1CC[C@H](NS(=O)(=O)c2ccc3ncsc3c2)CC1)c1ccc(F)cc1` [Example 113, (1r,4R)-4-(benzo[d]thiazole-6-surfonamido)-N-((R)-1-(4-fluorophenyl)ethyl)cyclohexanecarboxamide], the IC50 came to 212 nM. As to `C[C@@H](NC(=O)[C@H]1CC[C@H](NS(=O)(=O)c2ccc3cc(Cl)ccc3c2)CC1)c1cccnc1` [Example 684, (1r,4R)-4-(6-chloronaphthalene-2-sulfonamido)-N-((R)-1-(pyridin-3-yl)ethyl)cyclohexanecarboxamide], the concentration for half-maximal inhibition (IC50) is 180 nM. For `C[C@@H](NC(=O)[C@H]1CC[C@H](NS(=O)(=O)c2ccc3nc(N4CCOCC4)ccc3c2)CC1)c1ccc(F)cc1` [Example 213, (1r,4R)-N-((R)-1-(4-fluorophenyl)ethyl)-4-(2-morpholinoquinoline-6-sulfonamido)cyclohexanecarboxamide], the IC50 stood at 95 nM. Consider `Cn1c(-c2ccc(CO)cc2)cc2ccc(S(=O)(=O)N[C@H]3CC[C@H](C(=O)N4CCOCC4)CC3)cc21` [Example 336, 2-(4-(hydroxymethyl)phenyl)-1-methyl-N-((1r,4r)-4-(morpholine-4-carbonyl)cyclohexyl)-1H-indole-6-sulfonamide], for which the IC50 worked out at 35 nM.

With `O=C([C@H]1CC[C@H](NS(=O)(=O)c2ccc3cc(-c4ccccc4C(F)(F)F)[nH]c3c2)CC1)N1CCNC[C@@H]1c1ccccc1` [Example 333, N-((1S,4r)-4-((S)-2-phenylpiperazine-1-carbonyl)cyclohexyl)-2-(2-(trifluoromethyl)phenyl)-1H-indole-6-sulfonamide], the IC50 turned out to be 65 nM.

With `C[C@@H](NC(=O)[C@H]1CC[C@H](NS(=O)(=O)c2ccc3c(c2)C(NC(=O)C(F)(F)F)CCN3C(=O)C(F)(F)F)CC1)c1ccc(F)cc1` (stereo partly drawn) [Example 184, (1r,4R)-N-((R)-1-(4-fluorophenyl)ethyl)-4-(4-(2,2,2-trifluoroacetamido)-1-(2,2,2-trifluoroacetyl)-1,2,3,4-tetrahydroquinoline-6-sulfonamido)cyclohexanecarboxamide], the IC50 was over 35000 nM. For `CC(C)c1nnc(-c2ccc(NS(=O)(=O)c3ccc4[nH]c(Nc5ccccc5)nc4c3)cc2)o1` [Example 601, N-(4-(5-isopropyl-1,3,4-oxadiazol-2-yl)phenyl)-2-(phenylamino)-1H-benzo[d]imidazole-5-sulfonamide], the 50% inhibitory concentration (IC50) turned out to be 539 nM.

In the case of `Cn1c(-c2ccccc2)cc2ccc(S(=O)(=O)N[C@H]3CC[C@H](C(=O)N4CCC(O)C4)CC3)cc21` (some centres unmarked) [Example 433, N-((1r,4r)-4-(3-hydroxypyrrolidine-1-carbonyl)cyclohexyl)-1-methyl-2-phenyl-1H-indole-6-sulfonamide], the half-inhibitory concentration (IC50) was found to be 445 nM. As for `CC1(C)CN(C(=O)[C@H]2CC[C@H](NS(=O)(=O)c3ccc4cc(-c5ccccc5)[nH]c4c3)CC2)CCO1` [Example 464, N-((1r,4r)-4-(2,2-dimethylmorpholine-4-carbonyl)cyclohexyl)-2-phenyl-1H-indole-6-sulfonamide], the IC50 was 30 nM.
